# Several values for one entry are separate records, joined by “and”; a condition that tells them apart may be missing. Identical values can stand only once. Entries after “also recorded” stand apart in the source; their conditions may differ. Like-named read-outs stand apart in the source and are kept apart here.
# Tests used:
# MEK7 = target: T1, MEK7 (Homo sapiens, UniProt O14733); test: ADP-Glo kinase activity assay, MEK7; type: biochemical
# T1 construct: purchased Carna Biosciences
# T1 sequence (O14733 1-419): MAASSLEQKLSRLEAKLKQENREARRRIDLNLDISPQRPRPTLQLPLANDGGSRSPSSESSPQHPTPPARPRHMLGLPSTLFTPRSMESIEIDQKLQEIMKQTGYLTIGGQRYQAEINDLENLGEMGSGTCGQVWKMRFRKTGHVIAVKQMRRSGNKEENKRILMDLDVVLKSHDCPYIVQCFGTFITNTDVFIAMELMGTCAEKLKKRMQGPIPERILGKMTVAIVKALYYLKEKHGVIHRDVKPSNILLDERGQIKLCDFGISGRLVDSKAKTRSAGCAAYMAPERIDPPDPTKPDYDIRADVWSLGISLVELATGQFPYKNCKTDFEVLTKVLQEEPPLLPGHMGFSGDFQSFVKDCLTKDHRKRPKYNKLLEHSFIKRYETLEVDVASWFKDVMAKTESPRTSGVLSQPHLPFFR
# Method: The compounds were then evaluated both in vitro and in a cellular system. When studying kinase inhibitors, there are a multitude of ways to evaluate selectivity across kinases.
# Procedure for a 5 μL Kinase reaction using the ADP-Glo Kinase Assay Kit from Promega. Staurosporine was used as the positive control, and DMSO as the negative control. Activity of recombinant active full-length human MEK4 (Carna Biosciences) was measured using the ADP-Glo assay with recombinant full-length human p38α (MAPK14). Kinase reactions with MEK7 (Carna Biosciences) were done at the same concentration and amounts with recombinant full-length human p38α (MAPK14).
# For each well, 4 ng of MEK4 and 600 ng of p38α in Kinase buffer (CST) were used, and 1 μL of this mixture was dispensed per well.
# Inhibitor was prepared in a DMSO solution. A dose response dilution was done in a 384-well Echo transfer plate. […] This mixture was allowed to incubate for 30 minutes at room temperature.
# Using a Mantis, 1 μL, of an 8 μM ATP solution was added to each well, and the plate was allowed to incubate for another 1 hour at room temperature. […] All experiments were done in triplicate on the plate, and at least in one separate technical duplicate.
# MiaPaCa2 cells = test: cell proliferation (cell count after 72 hours), MiaPaCa2; type: cell-based, human; conditions: MiaPaCa2, 72 hours, varying doses, single agent
# Method: (§1) After 72 hours, cells were trypsinized, counted, and the cell numbers were normalized against the DMSO treatment. Mean±SD. Graphs are representative of 3 biological replicates.
# as §1
# Cell numbers from different treatments were normalized against the DMSO treatment, and CDI is calculated as follows: CDI=AB/(A×B), with AB being the ratio of the combination groups to control group and A or B being the ratio of the single agent group to the DMSO group. Mean±SEM from 3 biological replicates.
# (§2) We also examined the effects of these inhibitors on JNK phosphorylation and proliferation of two pancreatic cancer cell lines (CD18 and MiaPaCa2).
# (§3) Human pancreatic cancer cell lines (CD18/HPAF-II and MiaPaCa2) and HEK293T cells were obtained from American Type Culture Collection. All cell lines were cultured according to the manufacturer's protocol. All media contained 10% Fetal Bovine Serum (FBS) and antibiotics (100 U/mL Penicillin and 100 μg/mL Streptomycin).
# CYP 1A2 = CYP 1A2 (Homo sapiens, UniProt P05177)
# [1] = test system: JNK phosphorylation in CD18 cells; test: anisomycin-induced JNK phosphorylation, western blotting, CD18; type: cell-based, human; conditions: CD18, anisomycin 45 minutes then compound 5 hours
# Method: (§4) HSP90 was used as loading control. The blots are representative of at least three biological replicates.
# as §2, §3
# (§5) Whole cell extracts of cultured cells were prepared in radioimmunoprecipitation (RIPA) lysis buffer supplemented with phosphatase and protease inhibitors (Calbiochem). Protein concentration was determined by the bicinchoninic acid assay (BCA) (ThermoFisher) and separated by the SDS-PAGE technique. […] Secondary anti-mouse IgG (A4416) and anti-rabbit IgG (A6667) antibodies were purchased from Sigma-Aldrich and used a 1:4000 dilution. Images of blots were acquired on HyBlot ES Autoradiography Film (Thomas Scientific, Swedesboro, NJ, USA) following incubation with SuperSignal West Pico PLUS (ThermoFisher).
# BRAF = target: T2, BRAF (Homo sapiens, UniProt P15056); test: scanEDGE DiscoverX kinome-wide scan, BRAF; type: binding; conditions: 10 μM
# T2 construct: purchased Eurofins DiscoverX scanEDGE
# Description: (§6) To compare our compounds to the rest of the MEK inhibitors discovered thus far, we turned to the DiscoverX platform (KINOMEscan®, Eurofins DiscoverX), a widely used assay for comparing selectivity across the kinome. The DiscoverX platform reports the thermodynamic Kd in order to facilitate direct comparison of inhibitor affinity across the kinome, independent of ATP concentration.
# [2] = PAMPA assay (BioDuro-Sundia); type: in vitro ADME
# [3] = test system: phospho-p42/44 MAPK in MiaPaCa2 cells; test: p42/44 MAPK phosphorylation, western blotting, MiaPaCa2; type: cell-based, human; conditions: MiaPaCa2, MEK4 inhibitor 10 μM, 5 hours
# Method: (§7) The effects of different treatments on phospho-p42/44 MAPK and total p42/44 MAPK expression levels were determined by western blotting. HSP90 was used as loading control. The blots are representative of at least three biological replicates.
# as §5
# [4] = test system: phospho-p38 MAPK in HEK293T cells; test: p38 MAPK phosphorylation, western blotting, HEK293T; type: cell-based, human; conditions: anisomycin pretreatment, compound 100 μM, 5 hours
# Method: as §4
# (§8) We next evaluated the effects of our inhibitors on the phosphorylation activity and expression of MEK1/2, MEK3/6, and MEK7. […] We also evaluated the effects on p42/44 MAPK (ERK1/2), which functions downstream of MEK1/2.
# as §5
# HEK293T cells = test: cell proliferation (cell count after 72 hours), HEK293T; type: cell-based, human; conditions: varying doses
# Method: After 72 hours, cells were trypsinized, counted, and the cell numbers were normalized against the DMSO treatment. Mean±SD. Graphs are representative of 3 biological replicates. One-way ANOVA; ns, non-significant **, p<0.01 ***, p<0.001.
# as §2, §3
# [5] = test system: phospho-p42/44 MAPK in CD18 cells; test: p42/44 MAPK phosphorylation, western blotting, CD18; type: cell-based, human; conditions: CD18, MEK4 inhibitor 10 μM, 5 hours
# Method: as §7, §5
# in vitro = conditions: microsomes
# 97 kinases = test: scanEDGE DiscoverX kinome-wide scan; type: binding; conditions: 10 μM
# Description: as §6
# Caco-2 = Caco-2 permeability assay; type: in vitro ADME
# [6] = test system: MEK7 expression in HEK293T cells; test: MEK7 expression, western blotting, HEK293T; type: cell-based, human; conditions: anisomycin pretreatment, compound 100 μM, 5 hours
# Method: as §4, §8, §5
# Sequence of CYP 1A2 (P05177 whole entry): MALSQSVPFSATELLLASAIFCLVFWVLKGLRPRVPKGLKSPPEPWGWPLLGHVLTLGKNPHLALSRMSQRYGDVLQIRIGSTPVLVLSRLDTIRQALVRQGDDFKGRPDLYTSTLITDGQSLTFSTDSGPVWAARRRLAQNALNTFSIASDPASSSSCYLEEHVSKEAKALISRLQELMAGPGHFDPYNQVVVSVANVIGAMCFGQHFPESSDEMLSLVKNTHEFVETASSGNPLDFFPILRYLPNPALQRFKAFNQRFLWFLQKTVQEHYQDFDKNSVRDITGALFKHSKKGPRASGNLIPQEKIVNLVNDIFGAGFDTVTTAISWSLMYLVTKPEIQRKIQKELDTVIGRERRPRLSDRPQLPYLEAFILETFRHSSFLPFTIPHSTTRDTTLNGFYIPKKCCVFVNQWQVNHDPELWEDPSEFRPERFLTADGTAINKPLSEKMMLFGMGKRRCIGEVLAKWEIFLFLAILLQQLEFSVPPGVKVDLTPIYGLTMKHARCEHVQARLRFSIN
# T2 sequence (P15056 whole entry): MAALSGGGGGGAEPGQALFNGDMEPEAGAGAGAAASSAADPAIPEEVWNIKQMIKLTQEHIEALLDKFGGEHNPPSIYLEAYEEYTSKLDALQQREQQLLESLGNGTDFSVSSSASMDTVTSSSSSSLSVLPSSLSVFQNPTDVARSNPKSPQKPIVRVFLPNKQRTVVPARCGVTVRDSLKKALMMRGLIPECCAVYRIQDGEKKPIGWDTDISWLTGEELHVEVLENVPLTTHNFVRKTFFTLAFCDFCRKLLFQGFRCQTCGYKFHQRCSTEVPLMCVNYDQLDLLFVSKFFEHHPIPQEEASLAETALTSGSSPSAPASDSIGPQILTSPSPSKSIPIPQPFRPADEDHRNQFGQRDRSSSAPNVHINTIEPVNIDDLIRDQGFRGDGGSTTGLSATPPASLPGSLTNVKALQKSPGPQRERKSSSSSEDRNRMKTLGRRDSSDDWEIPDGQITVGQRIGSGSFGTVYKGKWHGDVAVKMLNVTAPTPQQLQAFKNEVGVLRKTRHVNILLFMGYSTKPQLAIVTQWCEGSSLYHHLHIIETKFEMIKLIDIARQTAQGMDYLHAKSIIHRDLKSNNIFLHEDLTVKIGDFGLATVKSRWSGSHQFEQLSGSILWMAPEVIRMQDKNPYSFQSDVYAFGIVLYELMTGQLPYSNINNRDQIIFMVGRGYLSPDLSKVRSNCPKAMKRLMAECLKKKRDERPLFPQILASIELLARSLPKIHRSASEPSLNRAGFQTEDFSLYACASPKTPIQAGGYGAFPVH
compound,measurement,setting,value
"NC(=O)c1ccc(NS(=O)(=O)c2cccc(-c3n[nH]c4cc(F)ccc34)c2)cc1 [Compound 15o, 4-((3-(6-fluoro-1H-indazol-3-yl)phenyl)sulfonamido)benzamide]",IC50,"MEK7; headline value per compound, read-out: MEK7 IC50",96 nM
same,IC50,"MEK7; individual experiment, values in brackets, n=3, read-out: MEK7 IC50 of each experiment (IC50±SEM)",41 nM and 150 nM
same,cell proliferation,MiaPaCa2 cells,decreased proliferation; also recorded: antiproliferative properties
same,inhibition of CYP 1A2,CYP 1A2,inhibited
same,effect on anisomycin-induced JNK phosphorylation,[1],attenuated anisomycin-induced JNK phosphorylation
same,inhibition of BRAF,BRAF,did not inhibit
same,permeability in the PAMPA assay,[2],low permeability
same,effect on p42/44 MAPK phosphorylation,[3],did not induce p42/44 MAPK phosphorylation
same,effect on anisomycin-induced p38 MAPK phosphorylation,[4],not affected
same,cell proliferation,HEK293T cells,decreased. HEK293T cell proliferation in a dose-dependent manner
same,effect on p42/44 MAPK phosphorylation,[5],increased p42/44 MAPK phosphorylation
same,half-life,in vitro,> 3.08 h
same,stability in the microsome assay,in vitro,good stability
same,"number of kinases hit at 80% or higher inhibition, out of 97 kinases",97 kinases,28
same,Caco-2 permeability,Caco-2,medium to high permeability
same,Pgp substrate,Caco-2; Caco-2 permeability assay,likely to be a Pgp substrate
same,effect on the expression of MEK7,[6],no effect

# From US20240116875A1, “RATIONAL DESIGN, OPTIMIZATION, AND BIOLOGICAL EVALUATION OF NOVEL MEK4 INHIBITORS AGAINST PANCREATIC ADENOCARCINOMA” (NORTHWESTERN UNIVERSITY, priority 2022, published 2024)
